Tested on: acute promyelocytic leukemia (HL-60) cells
Experiment: MTT colorimetric cytotoxicity test
Format: cell-based
Details: 72 hours of incubation, compared with DOXO in free form
Protocol: MTT (3- (4,5-dimethylthiazol-2-yl) -2,5-diphenyl-2H-tetrazolium bromide) colorimetric test allows the quantitation of living cells whose mitochondrial activity is maintained in the culture medium. […] P<0.05 was considered significant.
According to MTT experiments, after 72 hours of incubation, the effect of DOXO in free form, i.e., not loaded on AuNps, as well as the DOXO-loaded AuNps was investigated for acute promyelocytic leukemia (HL-60) and chronic myeloid leukemia (K562) cells, and the results are given in Figure 5 and Figure 6, respectively.

SMILES: COc1cccc2c1C(=O)c1c(O)c3c(c(O)c1C2=O)C[C@@](O)(C(=O)CO)C[C@@H]3O[C@H]1C[C@H](N)[C@H](O)[C@H](C)O1 [DOXO, Doxorubicin]
- cytotoxic effect (cell viability): should be used in higher amounts in order to have a similar cytotoxic effect

From patent publication EP4211126B1, “PHOTOCHEMICAL SYNTHESIS OF LOW PARTICLE SIZE MONODISPERSE GOLD NANOPARTICLES, LOADING WITH CANCER DRUG, AND DETERMINATION OF CYTOTOXIC ACTIVITY OF THE SAME” (Yildiz Teknik Universitesi, priority 2020, dated 2022)
